Columns and labels:
cancer cell lines = test: Treatment of cancer cell lines; type: cell-based
[1] = Modified Ames test for genotoxic effect; conditions: 4NQO positive control
From the text: (§1) FIGS. 1A-1I provide graphs and images showing a new high throughput method for simultaneous detection of senescence associated SAβG activity and ATP in culture of normal pre-aged cells identified two potent anti-aging scaffolds. (A). General schema of HTS. (B). […] (C). Structures and corresponding tautameric forms of lead compounds. (D) Evaluation of possible genotoxic effect of experimental drugs in modified Ames test. 4-Nitroquinoline 1-oxide (4NQO) was used as a positive control. […] The general schema of RLS measurement in different cell types. (F) VA and N2N1 considerably extend RLS of normal human fibroblasts (NHDF) and stromal cells isolated from human normal bone marrow. (G). […] (I). Upper panel: Morphological appearance of NHDF at late passages with or without treatment. Lower panel: Cells were also fixed in para-formaldehyde and stained to detect SAβG.

fibroblasts = test: Gene expression analysis of fibroblasts (RNAseq); type: cell-based; conditions: RNAseq exome
normal fibroblasts = test: Telomere length in treated fibroblasts; type: cell-based
From the text: (§2) Based on results obtained on tissue cultured cells (increased RLS) and an increase in the numbers of HSC surrogate cells (LTC-IC or CFU), the inventors set their future goal to develop a novel pharmacological treatment for AA patients and potentially for other BMF. They have examined the most prominent features of cellular aging: telomere shortening, mitochondrial dysfunction or decline in respiratory capacity and shift in intracellular redox balance toward more oxidized environment. […] The only persistent effect of VA was considerable reduction in global protein disulfide bonds (up to 30%) detected by Elman's reagent or direct labelling of reduced sulfhydryl groups with biotin-switch assay (FIG. 3A). That brought the reductive hypothesis to the inventors' attention. The redox potential is controlled by sophisticated set of diverse enzymes and this system is fed from generation of NADPH by multiple hydrogenases (FIG. 3B). Among them, the glucose-6-phosphate dehydrogenase (G6P) is most important, because it controls the rate limiting step of pentose phosphate pathway. The other important dehydrogenases are isocytrate dehydrogenases (cytoplasmic and mitochondrial, IDH1/2) and 6-phosphogluconate dehydrogenase (6PG). The next anti-oxidant cellular protection layer is thioredoxin and glutathione systems (FIG. 3B). The first one is composed of thioredoxin reductase (TrxR) and thioredoxin. […]

[2] = tested on: mitochondrial respiration rate; test: Mitochondrial respiration and glycolysis on Seahorse apparatus; type: cell-based; conditions: within few minutes or even hours after addition
From the text: as §2

[3] = tested on: fibroblasts derived from Werner syndrome patient; test: RLS of Werner syndrome fibroblasts; type: cell-based, human
From the text: as §1

[4] = tested on: normal human fibroblasts (NHDF) and stromal cells isolated from human normal bone marrow; test: Replicative lifespan (RLS) of normal cells in tissue culture; type: cell-based; conditions: normal fibroblasts and mesenchymal cells
From the text: as §1
The inventors developed a new high-throughput screening (HTS) method for identification of anti-aging drugs (FIG. 1). The novel method was specifically designed for simultaneous detection of β-galactosidase activity in cell lysate followed by ATP detection by standard luciferase based assay. […] Altogether, the procedure allowed a simultaneous quantifiable detection of senescence associated β-galactosidase (SAβG) activity and evaluation of ATP level as a sign of improved proliferative capacity or cytotoxicity. […]

[5] = tested on: fibroblasts derived from a patient diagnosed with Bloom syndrome; test: RLS of Bloom syndrome fibroblasts; type: cell-based, human
From the text: as §1

Row | Structure (SMILES) | toxicity / proliferation (cancer cell lines) | genotoxic effect [1] | expression of stem cell markers (fibroblasts) | telomere length (normal fibroblasts) | immediate response in mitochondrial respiration rate or glycolysis efficacy [2] | response of RLS to treatment [3] | expansion above regular replicative life span [4] | response of RLS to treatment [5]
1 | O=C1/C(=N/O)C=Cc2ccccc21 [N2N1, 1-naphthoquinone-2-monoxime] | partially toxic | did not show any detrimental effect on DNA integrity | revealed the expression of some stem cell markers | maintenance of telomere length was observed | could not detect any immediate | did not respond | ~25 doublings | responded positively
2 | O=C1NC(=O)C(=NO)C(=O)N1 [VA, 2,4,5,6(1H,3H)-pyrimidine-tetrone 5-oxime] | neither toxic nor pro-proliferative | did not show any detrimental effect on DNA integrity | revealed the expression of some stem cell markers | maintenance of telomere length was observed | could not detect any immediate | did not respond | ~25 doublings | responded positively

Reference: patent publication US11723907B2, “Anti-aging compounds” (THE CLEVELAND CLINIC FOUNDATION, priority 2017, dated 2023)
